Assay results as given in US7741327B2 (Hoffmann-La Roche Inc., priority 2008, dated 2010).

Molecular target: T1, Recombinant human liver GK1 (GST-GK) (Homo sapiens, UniProt P35557)
T1 construct: made in house; host or cells: E. coli
T1 sequence (P35557 1-466 isoform P35557-2): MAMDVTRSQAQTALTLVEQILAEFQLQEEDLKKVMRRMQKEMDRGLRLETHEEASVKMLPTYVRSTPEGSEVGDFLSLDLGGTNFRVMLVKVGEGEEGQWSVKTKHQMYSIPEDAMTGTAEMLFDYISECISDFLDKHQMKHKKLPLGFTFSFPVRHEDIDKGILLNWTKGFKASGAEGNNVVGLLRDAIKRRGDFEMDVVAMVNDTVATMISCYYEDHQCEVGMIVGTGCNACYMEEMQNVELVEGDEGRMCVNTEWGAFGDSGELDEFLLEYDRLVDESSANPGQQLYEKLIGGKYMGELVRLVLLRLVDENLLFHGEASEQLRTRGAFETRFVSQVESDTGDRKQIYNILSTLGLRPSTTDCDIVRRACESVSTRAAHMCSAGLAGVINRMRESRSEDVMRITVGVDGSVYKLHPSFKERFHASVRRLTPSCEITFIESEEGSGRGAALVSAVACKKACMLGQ
Test: In vitro glucokinase activity (G6PDH-coupled NADH assay)
Assay type: biochemical
Conditions: 30° C., 5 mM D-glucose, 10% DMSO
Method in brief: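 Activation measured as the rate of OD340 rise from G6PDH-coupled NADH production, relative to 10% DMSO control, reported as SC1.5 (concentration for 50% activity increase). Conditions: 30° C, pH 7.1 Hepes, 5 mM glucose, 1 mM ATP, purified recombinant GST-human GK1, compound preincubated 10 min before enzyme addition.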

CSc1ccccc1OC1=CC(=O)N([C@@H](CC2CCCCC2)C(=O)Nc2ccn(CC(C)(C)O)n2)C1 [Example 196, (S)-3-cyclohexyl-N-[1-(2-hydroxy-2-methyl-propyl)-1H-pyrazol-3-yl]-2-[4-(2-methylsulfanyl-phenoxy)-2-oxo-2,5-dihydro-pyrrol-1-yl]-propionamide]
SC1.5 (concentration of activator that produced a 50% increase in the activity of GK): 0.007 µM

CC(C)(O)Cn1ccc(NC(=O)[C@H](CC2CCCCC2)N2CC(Oc3ccccc3C(C)(C)C)=CC2=O)n1 [Example 197, (S)-2-[4-(2-t-butyl-phenoxy)-2-oxo-2,5-dihydro-pyrrol-1-yl]-3-cyclohexyl-N-[1-(2-hydroxy-2-methyl-propyl)-1H-pyrazol-3-yl]-propionamide]
SC1.5 (concentration of activator that produced a 50% increase in the activity of GK): 0.892 µM

CCCc1ccccc1OC1=CC(=O)N([C@@H](CC2CCCCC2)C(=O)Nc2ccn(CC(C)(C)O)n2)C1 [Example 198, (S)-3-cyclohexyl-N-[1-(2-hydroxy-2-methyl-propyl)-1H-pyrazol-3-yl]-2-[2-oxo-4-(2-propyl-phenoxy)-2,5-dihydro-pyrrol-1-yl]-propionamide]
SC1.5 (concentration of activator that produced a 50% increase in the activity of GK): 0.056 µM

COc1cccc(OC2=CC(=O)N([C@@H](CC3CCCCC3)C(=O)Nc3ccn(CC(C)(C)O)n3)C2)c1OC [Example 199, (S)-3-cyclohexyl-2-[4-(2,3-dimethoxy-phenoxy)-2-oxo-2,5-dihydro-pyrrol-1-yl]-N-[1-(2-hydroxy-2-methyl-propyl)-1H-pyrazol-3-yl]-propionamide]
SC1.5 (concentration of activator that produced a 50% increase in the activity of GK): 0.07 µM

CC(C)(O)Cn1ccc(NC(=O)[C@H](CC2CCCCC2)N2CC(Oc3cccc(F)c3F)=CC2=O)n1 [Example 200, (S)-3-cyclohexyl-2-[4-(2,3-difluoro-phenoxy)-2-oxo-2,5-dihydro-pyrrol-1-yl]-N-[1-(2-hydroxy-2-methyl-propyl)-1H-pyrazol-3-yl]-propionamide]
SC1.5 (concentration of activator that produced a 50% increase in the activity of GK): 0.011 µM

CC(C)(O)Cn1ccc(NC(=O)[C@H](CC2CCCCC2)N2CC(Oc3cc(Cl)ccc3Cl)=CC2=O)n1 [Example 201, (S)-3-cyclohexyl-2-[4-(2,5-dichloro-phenoxy)-2-oxo-2,5-dihydro-pyrrol-1-yl]-N-[1-(2-hydroxy-2-methyl-propyl)-1H-pyrazol-3-yl]-propionamide]
SC1.5 (concentration of activator that produced a 50% increase in the activity of GK): 0.013 µM

CC(C)(O)Cn1ccc(NC(=O)[C@H](CC2CCCCC2)N2CC(Oc3ccc(Cl)cc3Cl)=CC2=O)n1 [Example 202, (S)-3-cyclohexyl-2-[4-(2,4-dichloro-phenoxy)-2-oxo-2,5-dihydro-pyrrol-1-yl]-N-[1-(2-hydroxy-2-methyl-propyl)-1H-pyrazol-3-yl]-propionamide]
SC1.5 (concentration of activator that produced a 50% increase in the activity of GK): 0.012 µM

CC(C)(O)Cn1ccc(NC(=O)[C@H](CC2CCCCC2)N2CC(Oc3ccccc3OCc3ccccc3)=CC2=O)n1 [Example 203, (S)-2-[4-(2-benzyloxy-phenoxy)-2-oxo-2,5-dihydro-pyrrol-1-yl]-3-cyclohexyl-N-[1-(2-hydroxy-2-methyl-propyl)-1H-pyrazol-3-yl]-propionamide]
SC1.5 (concentration of activator that produced a 50% increase in the activity of GK): 0.253 µM

Cc1cccc(OC2=CC(=O)N([C@@H](CC3CCCCC3)C(=O)Nc3ccn(CC(C)(C)O)n3)C2)c1C [Example 204, (S)-3-cyclohexyl-2-[4-(2,3-dimethyl-phenoxy)-2-oxo-2,5-dihydro-pyrrol-1-yl]-N-[1-(2-hydroxy-2-methyl-propyl)-1H-pyrazol-3-yl]-propionamide]
SC1.5 (concentration of activator that produced a 50% increase in the activity of GK): 0.012 µM

CC(C)(O)Cn1ccc(NC(=O)[C@H](CC2CCCCC2)N2CC(Oc3cccc(Br)c3)=CC2=O)n1 [Example 205, (S)-2-[4-(3-bromo-phenoxy)-2-oxo-2,5-dihydro-pyrrol-1-yl]-3-cyclohexyl-N-[1-(2-hydroxy-2-methyl-propyl)-1H-pyrazol-3-yl]-propionamide]
SC1.5 (concentration of activator that produced a 50% increase in the activity of GK): 0.021 µM

CC(C)(O)Cn1ccc(NC(=O)[C@H](CC2CCCCC2)N2CC(Oc3cccc(F)c3)=CC2=O)n1 [Example 206, (S)-3-cyclohexyl-2-[4-(3-fluoro-phenoxy)-2-oxo-2,5-dihydro-pyrrol-1-yl]-N-[1-(2-hydroxy-2-methyl-propyl)-1H-pyrazol-3-yl]-propionamide]
SC1.5 (concentration of activator that produced a 50% increase in the activity of GK): 0.034 µM

CC(C)(O)Cn1ccc(NC(=O)[C@H](CC2CCCCC2)N2CC(Oc3cccc(Cl)c3)=CC2=O)n1 [Example 207, (S)-2-[4-(3-chloro-phenoxy)-2-oxo-2,5-dihydro-pyrrol-1-yl]-3-cyclohexyl-N-[1-(2-hydroxy-2-methyl-propyl)-1H-pyrazol-3-yl]-propionamide]
SC1.5 (concentration of activator that produced a 50% increase in the activity of GK): 0.018 µM

COc1cccc(OC2=CC(=O)N([C@@H](CC3CCCCC3)C(=O)Nc3ccn(CC(C)(C)O)n3)C2)c1 [Example 208, (S)-3-cyclohexyl-N-[1-(2-hydroxy-2-methyl-propyl)-1H-pyrazol-3-yl]-2-[4-(3-methoxy-phenoxy)-2-oxo-2,5-dihydro-pyrrol-1-yl]-propionamide]
SC1.5 (concentration of activator that produced a 50% increase in the activity of GK): 0.012 µM

CC(C)(O)Cn1ccc(NC(=O)[C@H](CC2CCCCC2)N2CC(Oc3cccc(C(F)(F)F)c3)=CC2=O)n1 [Example 209, (S)-3-cyclohexyl-N-[1-(2-hydroxy-2-methyl-propyl)-1H-pyrazol-3-yl]-2-[2-oxo-4-(3-trifluoromethyl-phenoxy)-2,5-dihydro-pyrrol-1-yl]-propionamide]
SC1.5 (concentration of activator that produced a 50% increase in the activity of GK): 0.076 µM

Cc1cccc(OC2=CC(=O)N([C@@H](CC3CCCCC3)C(=O)Nc3ccn(CC(C)(C)O)n3)C2)c1 [Example 210, (S)-3-cyclohexyl-N-[1-(2-hydroxy-2-methyl-propyl)-1H-pyrazol-3-yl]-2-(2-oxo-4-m-tolyloxy-2,5-dihydro-pyrrol-1-yl)-propionamide]
SC1.5 (concentration of activator that produced a 50% increase in the activity of GK): 0.018 µM

CC(C)(O)Cn1ccc(NC(=O)[C@H](CC2CCCCC2)N2CC(Oc3cccc(OC(F)(F)F)c3)=CC2=O)n1 [Example 211, (S)-3-cyclohexyl-N-[1-(2-hydroxy-2-methyl-propyl)-1H-pyrazol-3-yl]-2-[2-oxo-4-(3-trifluoromethoxy-phenoxy)-2,5-dihydro-pyrrol-1-yl]-propionamide]
SC1.5 (concentration of activator that produced a 50% increase in the activity of GK): 0.055 µM

Cc1ccc(OC2=CC(=O)N([C@@H](CC3CCCCC3)C(=O)Nc3ccn(CC(C)(C)O)n3)C2)cn1 [Example 212, (S)-3-cyclohexyl-N-[1-(2-hydroxy-2-methyl-propyl)-1H-pyrazol-3-yl]-2-[4-(6-methyl-pyridin-3-yloxy)-2-oxo-2,5-dihydro-pyrrol-1-yl]-propionamide]
SC1.5 (concentration of activator that produced a 50% increase in the activity of GK): 0.054 µM

CC(C)(O)Cn1ccc(NC(=O)[C@H](CC2CCCCC2)N2CC(Oc3ccccc3)=CC2=O)n1 [Example 213, (S)-3-cyclohexyl-N-[1-(2-hydroxy-2-methyl-propyl)-1H-pyrazol-3-yl]-2-(2-oxo-4-phenoxy-2,5-dihydro-pyrrol-1-yl)-propionamide]
SC1.5 (concentration of activator that produced a 50% increase in the activity of GK): 0.028 µM

CC(C)(O)Cn1ccc(NC(=O)C(C[C@H]2C[C@H](C)C2)N2CC(Oc3ccccc3Cl)=CC2=O)n1 (stereo partly drawn) [Example 214, 2-[4-(2-Chloro-phenoxy)-2-oxo-2,5-dihydro-pyrrol-1-yl]-N-[1-(2-hydroxy-2-methyl-propyl)-1H-pyrazol-3-yl]-3-(trans-3-methyl-cyclobutyl)-propionamide]
SC1.5 (concentration of activator that produced a 50% increase in the activity of GK): 0.043 µM

CC(C)(O)Cn1ccc(NC(=O)C(C[C@H]2C[C@@H](C)C2)N2CC(Oc3ccccc3Cl)=CC2=O)n1 (stereo partly drawn) [Example 217, 2-[4-(2-Chloro-phenoxy)-2-oxo-2,5-dihydro-pyrrol-1-yl]-N-[1-(2-hydroxy-2-methyl-propyl)-1H-pyrazol-3-yl]-3-(cis-3-methyl-cyclobutyl)-propionamide]
SC1.5 (concentration of activator that produced a 50% increase in the activity of GK): 0.137 µM

CC(F)(F)C[C@@H](C(=O)Nc1ccn(C[C@@H](O)CO)n1)N1CC(Oc2ccccc2Cl)=CC1=O [Example 218, (S)-2-[4-(2-Chloro-phenoxy)-2-oxo-2,5-dihydro-pyrrol-1-yl]-4,4-difluoro-pentanoic acid [1-((R)-2,3-dihydroxy-propyl)-1H-pyrazol-3-yl]-amide]
SC1.5 (concentration of activator that produced a 50% increase in the activity of GK): 4.538 µM

O=C(Nc1ccn(C[C@@H](O)CO)n1)C(CC(C(F)(F)F)C(F)(F)F)N1CC(Oc2ccccc2Cl)=CC1=O (stereo partly drawn) [Example 219, 2-[4-(2-Chloro-phenoxy)-2-oxo-2,5-dihydro-pyrrol-1-yl]-5,5,5-trifluoro-4-trifluoromethyl-pentanoic acid [1-((R)-2,3-dihydroxy-propyl)-1H-pyrazol-3-yl]-amide]
SC1.5 (concentration of activator that produced a 50% increase in the activity of GK): 4.287 µM
